In ChEMBL document CHEMBL4627326, “Discovery of 4-hydroxy-2-oxo-1,2-dihydroquinolines as potential inhibitors of Streptococcus pneumoniae, including drug-resistant strains” (Bioorg Med Chem Lett, 2020):
≈ marks a conversion by molar mass, not a printed value.

Columns and labels:
Streptococcus pneumoniae [1] = test: Antibacterial activity against Streptococcus pneumoniae ATCC 49617; type: functional, organism-based
Streptococcus pneumoniae [2] = test: Antibacterial activity against Streptococcus pneumoniae ATCC BAA1663; type: functional, organism-based
Streptococcus pneumoniae [3] = test: Antibacterial activity against Streptococcus pneumoniae ATCC 700904; type: functional, organism-based
[4] = Volume of distribution at steady state in rat at 2 mg/kg, iv; type: ADME, organism-based; conditions: in vivo, read-out: Vdss
[5] = AUC in rat at 2 mg/kg, iv; type: ADME, organism-based; conditions: in vivo
[6] = Half life in rat at 2 mg/kg, iv; type: ADME, organism-based; conditions: in vivo
[7] = Tmax in rat at 10 mg/kg, po; type: ADME, organism-based; conditions: in vivo
[8] = Cmax in rat at 10 mg/kg, po; type: ADME, organism-based; parameters: dose 10 mg/kg, route oral; conditions: in vivo
[9] = Half life in rat at 10 mg/kg, po; type: ADME, organism-based; conditions: in vivo
[10] = Clearance in rat at 2 mg/kg, iv; type: ADME, organism-based; conditions: in vivo
[11] = AUC in rat at 10 mg/kg, po; type: ADME, organism-based; conditions: in vivo
[12] = Oral bioavailability in rat at 10 mg/kg; type: ADME, organism-based; conditions: in vivo
[13] = Protein binding in rat plasma; type: ADME, cell-free; conditions: read-out: PPB (converted)
[14] = Solubility of compound at 1 mg/ml incubated for 24 hrs by LC/MS analysis; type: physicochemical
[15] = Protein binding in human plasma; type: ADME, cell-free; conditions: read-out: PPB (converted)
[16] = Streptococcus pneumoniae, ATCC 700904, read-out: IC50

Row | SMILES | IC50 (Streptococcus pneumoniae [1]) [µM] | IC50 (Streptococcus pneumoniae [2]) [µM] | IC50 (Streptococcus pneumoniae [3]; [16]) [µM] | other results
1 | O=C(Nc1nccs1)c1c(O)c2cccc3c2n(c1=O)CCC3 | > 20 | > 20 | > 20 | –
2 | CCn1c(=O)c(C(=O)Nc2nc3ccccc3[nH]2)c(O)c2ccccc21 | 6.4 | 5.4 | 3.8 | –
3 | CCCCn1c(=O)c(C(=O)Nc2nc3ccccc3[nH]2)c(O)c2ccccc21 | 0.92 | 1.8 | 0.8 | Vd [4]: 4.76 L/kg; AUC [5]: 6990 ng·h/mL; half-life [6]: 18.8 h; Tmax [7]: 6 h; Cmax [8]: 1200 ng/mL; half-life [9]: 4 h; clearance [10]: 3 mL/min/kg; AUC [11]: 12400 ng·h/mL; bioavailability [12]: 35%
4 | O=C(Nc1nc2ccccc2[nH]1)c1c(O)c2cccc3c2n(c1=O)CC3 | 2 | 2.1 | 3.3 | Vd [4]: 0.84 L/kg; AUC [5]: 25700 ng·h/mL; half-life [6]: 7.7 h; Tmax [7]: 2.7 h; Cmax [8]: 2700 ng/mL; half-life [9]: 7.2 h; clearance [10]: 1.17 mL/min/kg; AUC [11]: 21400 ng·h/mL; bioavailability [12]: 17%
5 | CCn1c(=O)c(C(=O)Nc2nccs2)c(O)c2ccccc21 | > 20 | 6.6 | 6.2 | –
6 | O=C(Nc1nc2ccc(Cl)cc2s1)c1c(O)c2cccc3c2n(c1=O)CC3 | 0.27 | 1.03 | 0.62 | fraction unbound [13]: 0.016; solubility at 24 h [14]: 0.195 µg/mL (≈ 0.49 µM); fraction unbound [15]: 0.006
7 | CCCCn1c(=O)c(C(=O)Nc2nccs2)c(O)c2ccccc21 | 0.57 | 0.75 | 0.77 | –
8 | C=CCn1c(=O)c(C(=O)Nc2nc3ccccc3[nH]2)c(O)c2ccccc21 | 4.9 | > 20 | > 20 | –
9 | CCCCn1c(=O)c(C(=O)Nc2nc3ccc(Cl)cc3s2)c(O)c2ccccc21 | 1 | 0.66 | 0.38 | –
10 | O=C(Nc1nc2ccc(Cl)cc2s1)c1c(O)c2cccc3c2n(c1=O)CCC3 | > 20 | > 20 | > 20 | –
11 | O=C(Nc1nc2ccccc2s1)c1c(O)c2cccc3c2n(c1=O)CC3 | 3.6 | 8.8 | 7.9 | –
12 | O=C(Nc1nccs1)c1c(O)c2cccc3c2n(c1=O)CC3 | 17.6 | 16 | > 20 | –
13 | C=CCn1c(=O)c(C(=O)Nc2nc3ccc(Cl)cc3s2)c(O)c2ccccc21 | > 20 | 3.1 | 3.1 | –
14 | CCn1c(=O)c(C(=O)Nc2nc3ccc(Cl)cc3s2)c(O)c2ccccc21 | 5.9 | > 20 | > 20 | –
15 | CN[C@H](CC(C)C)C(=O)N[C@H]1C(=O)N[C@@H](CC(N)=O)C(=O)N[C@H]2C(=O)N[C@H]3C(=O)N[C@H](C(=O)N[C@H](C(=O)O)c4cc(O)cc(O)c4-c4cc3ccc4O)[C@H](O)c3ccc(c(Cl)c3)Oc3cc2cc(c3O[C@@H]2O[C@H](CO)[C@@H](O)[C@H](O)[C@H]2O[C@H]2C[C@](C)(N)[C@H](O)[C@H](C)O2)Oc2ccc(cc2Cl)[C@H]1O [VANCOMYCIN] | 0.15 to 0.18 | 0.13 to 0.19 | 0.12 to 0.19 | –

More lines, main results first:

Row | IC50 (Streptococcus pneumoniae [1]) [µM] | IC50 (Streptococcus pneumoniae [2]) [µM] | IC50 (Streptococcus pneumoniae [3]; [16]) [µM] | SMILES | other results
16 | 4.1 | 4.5 | 4.2 | C=CCn1c(=O)c(C(=O)Nc2nccs2)c(O)c2ccccc21 | –
17 | 6.5 | 5.2 | 6.4 | O=C(Nc1nc2ccccc2[nH]1)c1c(O)c2cccc3c2n(c1=O)CCC3 | –
18 | > 20 | > 20 | > 20 | Cn1c(=O)c(C(=O)Nc2nc3ccccc3[nH]2)c(O)c2ccccc21 | –
19 | 2.2 | 2.7 | 1.7 | Cc1nnc(NC(=O)c2c(O)c3cccc4c3n(c2=O)CC4)s1 | –
20 | 13.1 | > 20 | > 20 | O=C(Nc1nc2ccc(Cl)cc2s1)c1c(O)c2ccccc2[nH]c1=O | –
21 | > 20 | > 20 | > 20 | Cn1c(=O)c(C(=O)Nc2nccs2)c(O)c2ccccc21 | –
22 | 0.051 to 0.1 | 0.037 to 0.08 | – | CC[C@H]1OC(=O)[C@H](C)[C@@H](O[C@H]2C[C@@](C)(OC)[C@@H](O)[C@H](C)O2)[C@H](C)[C@@H](O[C@@H]2O[C@H](C)C[C@H](N(C)C)[C@H]2O)[C@](C)(O)C[C@@H](C)C(=O)[C@H](C)[C@@H](O)[C@]1(C)O [ERYTHROMYCIN] | IC50 (Streptococcus pneumoniae [3]): Not Active
